# Measured values reported in patent US8895562B2, “Piperazin-1-yl-trifluoromethyl-substituted-pyridines as fast dissociating dopamine 2 receptor antagonists” (Janssen Pharmaceutica NV, priority 2008, dated 2014).
# Counter-ions that a name gives are not always drawn. Like-named read-outs stand apart in the source and are kept apart here.
# Tests used:
# [1] = biological target: T1, human Dopamine D2L receptor (Homo sapiens, UniProt P14416); test: In vitro binding affinity for human D2L receptor ([3H]spiperone); conditions: membranes of human D2L receptor-transfected CHO cells, read-out: D2L binding pIC50 (converted)
# T1 construct: expressed in transfected cells; host or cells: CHO cells (membranes)
# Source text: In order to find antipsychotic compounds active against positive and negative symptoms and cognitive impairment, and having an improved safety profile (low EPS incidence and no metabolic disorders), we have screened for compounds selectively interacting with the dopamine D2 receptor and dissociating fast from this receptor, and further having affinity for the dopamine D3 receptor as well as the serotonin 5-HT-6 receptor. Compounds were first screened for their D2 affinity in a binding assay using [^3H]spiperone and human D2L receptor cell membranes.
# Frozen membranes of human Dopamine D2L receptor-transfected CHO cells were thawed, briefly homogenised using an Ultra-Turrax T25 homogeniser and diluted in Tris-HCl assay buffer containing NaCl, CaCl2, MgCl2, KCl (50, 120, 2, 1, and 5 mM respectively, adjusted to pH 7.7 with HCl) to an appropriate protein concentration optimised for specific and non-specific binding. Radioligand [^3H]Spiperone (NEN, specific activity ˜70 Ci/mmol) was diluted in assay buffer at a concentration of 2 nmol/L. Prepared radioligand (50 μl), along with 50 μl of either the 10% DMSO control, Butaclamol (10^−6 mol/l final concentration), or compound of interest, was then incubated (30 min, 37° C.) with 400 μl of the prepared membrane solution. Membrane-bound activity was filtered through a Packard Filtermate harvester onto GF/B Unifilterplates and washed with ice-cold Tris-HCl buffer (50 mM; pH 7.7; 6×0.5 ml). Filters were allowed to dry before adding scintillation fluid and counting in a Topcount scintillation counter. Percentage specific bound and competition binding curves were calculated using S-Plus software (Insightful).
# human D2L receptor = biological target: T2, human D2L receptor (Homo sapiens, UniProt P14416); test: Fast dissociation, indirect assay ([3H]spiperone binding after pre-incubation with compound); conditions: compound at 4 times its IC50, 1 h pre-incubation at 25° C., then 5 min with 1 nM [3H]spiperone on filter
# T2 construct: expressed in transfected cells
# Description: Compounds were first screened for their D2 affinity in a binding assay using [^3H]spiperone and human D2L receptor cell membranes.
# Compounds at a concentration of 4 times their IC50 were first incubated for one hour with human D2L receptor cell membranes in a volume of 2 ml at 25° C., then filtered over glass-fibre filter under suction using a 40 well multividor. Immediately after, the vacuum was released. 0.4 ml of pre-warmed buffer (25° C.) containing 1 nM [^3H]spiperone was added on the filter for 5 minutes. The incubation was stopped by initiating the vacuum and immediate rinsing with 2×5 ml of ice-cold buffer. The filter-bound radioactivity was measured in a liquid scintillation spectrometer. The principle of the assay is based on the assumption that the faster a compound dissociates from the D2 receptor, the faster [^3H]spiperone binds to the D2 receptor.
# [2] = biological target: T3, human Serotonin 5HT6 receptor (Homo sapiens, UniProt P50406); test: In vitro binding affinity for human 5HT6 receptor ([3H]LSD)
# T3 construct: expressed in transfected cells; host or cells: HEK cells (membranes)
# Description: Frozen membranes of human Serotonin 5HT6 receptor-transfected HEK cells were thawed, briefly homogenized using an Ultra-Turrax T25 homogeniser and diluted in 50 mM Tris-HCl assay buffer containing 10 mM MgCl2, 1 mM EDTA and 10 μM Pargyline (adjusted to pH 7.4 with HCl) to an appropriate protein concentration optimized for specific and non-specific binding. Radioligand [^3H]Lysergic acid diethylamide (Perkin Elmer, specific activity ˜80 Ci/mmol) was diluted in assay buffer at a concentration of 20 nM. Radioligand (20 μl), along with 40 μl of either the 10% DMSO control, Methiothepine (10^−5M final concentration), or compound of interest, was then incubated with 70 μl of the prepared membrane solution and 70 μl of WGA coated PVT beads (0.25 mg/well final concentration). After shaking for 24 hours at RT plates were counted in a Topcount™ scintillation counter. Percentage specific binding and competition binding curves were calculated using S-Plus software (Insightful).
# [3] = biological target: T4, human Dopamine D3 receptor (Homo sapiens, UniProt P35462); test: In vitro binding affinity for human D3 receptor ([125I]iodosulpride)
# T4 construct: expressed in transfected cells; host or cells: CHO cells (membranes)
# Description: Frozen membranes of human Dopamine D3 receptor-transfected CHO cells were thawed, briefly homogenized using an Ultra-Turrax T25 homogeniser and diluted in 50 mM Tris-HCl assay buffer containing 120 mM NaCl, 2 mM CaCl2, 1 mM MgCl2, 5 mM KCl and 0.1% BSA (adjusted to pH 7.4 with HCl) to an appropriate protein concentration optimized for specific and non-specific binding. Radioligand [^125I]Iodosulpride (Amersham, specific activity ˜2000 Ci/mmol) was diluted in assay buffer at a concentration of 2 nM. Prepared radioligand (20 μl), along with 40 μl of either the 10% DMSO control, Risperidone (10^−6M final concentration), or compound of interest, was then incubated with 70 μl of the prepared membrane solution and 70 μl of WGA coated PVT beads (0.25 mg/well final concentration). After shaking for 24 hours at RT plates were counted in a Topcount™ scintillation counter. Percentage specific binding and competition binding curves were calculated using S-Plus software (Insightful).
# [4] = membranes of human 5HT6 receptor-transfected HEK cells, [3H]lysergic acid diethylamide, read-out: 5-HT6 binding pIC50 (converted)
# [5] = membranes of human D3 receptor-transfected CHO cells, [125I]iodosulpride, read-out: D3 binding pIC50 (converted)
# T2 sequence (P14416 whole entry): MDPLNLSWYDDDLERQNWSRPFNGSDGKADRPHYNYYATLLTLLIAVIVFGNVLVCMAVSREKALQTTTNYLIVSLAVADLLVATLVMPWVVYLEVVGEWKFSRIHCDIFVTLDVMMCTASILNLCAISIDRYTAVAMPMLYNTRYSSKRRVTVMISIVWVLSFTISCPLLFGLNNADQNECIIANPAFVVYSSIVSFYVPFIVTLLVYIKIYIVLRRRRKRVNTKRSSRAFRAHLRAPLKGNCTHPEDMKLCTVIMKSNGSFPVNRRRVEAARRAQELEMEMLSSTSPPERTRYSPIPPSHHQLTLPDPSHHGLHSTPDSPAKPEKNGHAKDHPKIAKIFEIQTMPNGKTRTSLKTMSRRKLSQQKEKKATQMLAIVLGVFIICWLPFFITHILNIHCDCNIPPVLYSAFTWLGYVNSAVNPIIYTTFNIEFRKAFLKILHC
# T1 sequence (P14416 whole entry): as above
# T4 sequence (P35462 whole entry): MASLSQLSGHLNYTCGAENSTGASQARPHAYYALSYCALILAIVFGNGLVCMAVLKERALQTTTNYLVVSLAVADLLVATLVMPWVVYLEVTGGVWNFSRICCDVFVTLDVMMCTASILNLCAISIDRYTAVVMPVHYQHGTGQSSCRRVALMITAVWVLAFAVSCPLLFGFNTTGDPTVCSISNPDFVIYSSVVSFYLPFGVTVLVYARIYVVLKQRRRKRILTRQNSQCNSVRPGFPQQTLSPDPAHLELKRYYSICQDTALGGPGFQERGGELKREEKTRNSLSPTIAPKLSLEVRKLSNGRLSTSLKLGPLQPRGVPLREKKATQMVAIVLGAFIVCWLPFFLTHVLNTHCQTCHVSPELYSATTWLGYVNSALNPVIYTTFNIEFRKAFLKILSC
# T3 sequence (P50406 whole entry): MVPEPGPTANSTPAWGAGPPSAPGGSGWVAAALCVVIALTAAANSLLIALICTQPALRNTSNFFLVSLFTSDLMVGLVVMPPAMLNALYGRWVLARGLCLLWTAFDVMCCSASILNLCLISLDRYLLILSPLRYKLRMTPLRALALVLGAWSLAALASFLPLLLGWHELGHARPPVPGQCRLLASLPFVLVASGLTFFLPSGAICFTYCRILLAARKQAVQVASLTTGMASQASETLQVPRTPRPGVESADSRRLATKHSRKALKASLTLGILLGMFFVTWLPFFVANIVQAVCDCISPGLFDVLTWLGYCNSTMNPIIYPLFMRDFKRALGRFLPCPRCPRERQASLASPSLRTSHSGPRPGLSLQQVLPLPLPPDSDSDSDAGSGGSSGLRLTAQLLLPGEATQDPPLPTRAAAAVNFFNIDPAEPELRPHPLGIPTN
SMILES,IC50 [1],D2 dissociation ([3H]spiperone binding as % of total binding capacity) (human D2L receptor),"IC50 [2, 4]","IC50 [3, 5]",melting point,IC50 [3],IC50 [2]
"COc1nc(C(F)(F)F)c(-c2ccccc2)cc1N1CCNCC1 [Example B5, 1-(2-Methoxy-5-phenyl-6-trifluoromethyl-pyridin-3-yl)-piperazine]",204 nM,66%,93.3 nM,–,–,–,–
"N#Cc1nc(C(F)(F)F)c(-c2ccccc2)cc1N1CCNCC1 [Example B7, 5-Phenyl-3-piperazin-1-yl-6-trifluoromethyl-pyridine-2-carbonitrile]",3390 nM,–,309 nM,372 nM,–,–,–
"Fc1ccc(-c2cc(N3CCNCC3)ncc2C(F)(F)F)cc1 [Example B1, 1-[4-(4-Fluoro-phenyl)-5-trifluoromethyl-pyridin-2-yl]-piperazine]",3890 nM,–,123 nM,–,80.6 °C,–,–
"N#Cc1nc(N2CCNCC2)cc(-c2ccccc2)c1C(F)(F)F (as salt: salt) [Example B2, 4-Phenyl-6-piperazin-1-yl-3-trifluoromethyl-pyridine-2-carbonitrile]",–,–,–,–,255.3 °C,–,–
"N#Cc1nc(N2CCNCC2)cc(-c2ccccc2)c1C(F)(F)F [Example B2, 4-Phenyl-6-piperazin-1-yl-3-trifluoromethyl-pyridine-2-carbonitrile]",129 nM,60%,8.13 nM,10.7 nM,–,–,–
"COc1nc(C(F)(F)F)c(-c2ccc(F)cc2)cc1N1CCNCC1 [Example B6, 1-[5-(4-Fluoro-phenyl)-2-methoxy-6-trifluoromethyl-pyridin-3-yl]-piperazine]",468 nM,–,129 nM,–,–,–,–
"Cc1nc(C(F)(F)F)c(-c2ccccc2)cc1N1CCNCC1 [Example B8, 1-(2-Methyl-5-phenyl-6-trifluoromethyl-pyridin-3-yl)-piperazine]",4790 nM,95%,170 nM,2090 nM,–,–,–
"FC(F)(F)c1ncc(N2CCNCC2)cc1-c1ccccc1 [Example B4, 1-(5-Phenyl-6-trifluoromethyl-pyridin-3-yl)-piperazine]",479 nM,69%,138 nM,–,–,33.9 nM,–
"COc1nc(N2CCNCC2)cc(-c2ccccc2)c1C(F)(F)F [Example B3, 1-(6-Methoxy-4-phenyl-5-trifluoromethyl-pyridin-2-yl)-piperazine]",229 nM,45%,–,–,–,46.8 nM,18.6 nM
"COc1nc(C(F)(F)F)c(-c2ccc(F)cc2)cc1N1CCN(C(=O)OC(C)(C)C)CC1 [Example A16, 4-[5-(4-Fluoro-phenyl)-2-methoxy-6-trifluoromethyl-pyridin-3-yl]-piperazine-1-carboxylic acid tert-butyl ester]",7940 nM,83%,224 nM,2090 nM,–,–,–
"COc1nc(C(F)(F)F)c(-c2ccccc2)cc1N1CCNCC1 (as salt: salt) [Example B5, 1-(2-Methoxy-5-phenyl-6-trifluoromethyl-pyridin-3-yl)-piperazine]",–,–,–,–,184.8 °C,–,–
